{
  "source": "PubChem BioAssay (NCI)",
  "test_in_all_cases": "DTP human tumour cell line panel, 48 h",
  "key": {"[1]": {"tested_on": "BT-549 breast"}, "[2]": {"tested_on": "LXFL 529 NSCLC"}, "[3]": {"tested_on": "HCC-2998 colon"}, "[4]": {"tested_on": "SK-MEL-2 melanoma"}, "[5]": {"tested_on": "SNB-19 CNS"}, "[6]": {"tested_on": "A498 renal"}, "[7]": {"tested_on": "ACHN renal"}, "[8]": {"tested_on": "M14 melanoma"}, "[9]": {"tested_on": "SK-MEL-5 melanoma"}, "[10]": {"tested_on": "UACC-257 melanoma"}, "[11]": {"tested_on": "NCI-H522 lung"}, "[12]": {"tested_on": "MDA-N"}, "[13]": {"tested_on": "OVCAR-5 ovarian"}, "[14]": {"tested_on": "OVCAR-8 ovarian"}, "[15]": {"tested_on": "NCI-H226 lung"}, "[16]": {"tested_on": "SF-295 CNS"}, "[17]": {"tested_on": "HCT-116 colon"}, "[18]": {"tested_on": "NCI-H23 lung"}, "[19]": {"tested_on": "CAKI-1 renal"}, "[20]": {"tested_on": "SF-268 CNS"}, "[21]": {"tested_on": "SNB-75 CNS"}, "[22]": {"tested_on": "NCI-H460 lung"}, "[23]": {"tested_on": "HOP-18 NSCLC"}, "[24]": {"tested_on": "SNB-78 CNS"}, "[25]": {"tested_on": "RXF 393 renal"}, "[26]": {"tested_on": "SF-539 CNS"}, "[27]": {"tested_on": "DU-145 prostate"}, "[28]": {"tested_on": "HT29 colon"}, "[29]": {"tested_on": "SK-OV-3 ovarian"}, "[30]": {"tested_on": "SW-620 colon"}, "[31]": {"tested_on": "MOLT-4 leukemia"}, "[32]": {"tested_on": "CCRF-CEM leukemia"}},
  "note": "“And” between values parts separate entries of the source, which are not always exact repeats. Identical values can stand only once.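 Five concentrations, 48 hours, 96-well plates. GI50 is the concentration that inhibits growth by half. TGI: total growth inhibition.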",
  "data": [
    {"compound": "O=[N+]([O-])c1cccc2nc3ccccc3c(NCCO)c12", "values": [
      {"measurement": "GI50", "setting": "[1]", "value": 0.108, "unit": "nM"},
      {"measurement": "TGI", "setting": "[1]", "value": 0.295, "unit": "nM"},
      {"measurement": "TGI", "setting": "[2]", "value": 15.7, "unit": "nM"},
      {"measurement": "GI50", "setting": "[3]", "value": 1.46, "unit": "nM"},
      {"measurement": "TGI", "setting": "[3]", "value": "3.67 nM and 3.38 nM"},
      {"measurement": "GI50", "setting": "[4]", "value": 0.338, "unit": "nM"},
      {"measurement": "TGI", "setting": "[4]", "value": 0.857, "unit": "nM"},
      {"measurement": "GI50", "setting": "[5]", "value": 1.2, "unit": "nM"},
      {"measurement": "TGI", "setting": "[5]", "value": 87.8, "unit": "nM"},
      {"measurement": "GI50", "setting": "[6]", "value": 9.34, "unit": "nM"},
      {"measurement": "TGI", "setting": "[6]", "value": 36.7, "unit": "nM"},
      {"measurement": "GI50", "setting": "[7]", "value": 0.189, "unit": "nM"},
      {"measurement": "TGI", "setting": "[7]", "value": "4.05 nM and 2.47 nM"},
      {"measurement": "TGI", "setting": "[8]", "value": 0.799, "unit": "nM"},
      {"measurement": "GI50", "setting": "[9]", "value": 0.279, "unit": "nM"},
      {"measurement": "TGI", "setting": "[9]", "value": 1.12, "unit": "nM"},
      {"measurement": "GI50", "setting": "[10]", "value": 0.999, "unit": "nM"},
      {"measurement": "TGI", "setting": "[10]", "value": 3.84, "unit": "nM"},
      {"measurement": "GI50", "setting": "[11]", "value": 0.527, "unit": "nM"},
      {"measurement": "TGI", "setting": "[11]", "value": 1.52, "unit": "nM"},
      {"measurement": "GI50", "setting": "[12]", "value": 0.0322, "unit": "nM"},
      {"measurement": "GI50", "setting": "[13]", "value": 0.703, "unit": "nM"},
      {"measurement": "TGI", "setting": "[13]", "value": "9.29 nM and 3.07 nM"},
      {"measurement": "GI50", "setting": "[14]", "value": 1.21, "unit": "nM"},
      {"measurement": "TGI", "setting": "[14]", "value": 19.2, "unit": "nM"},
      {"measurement": "GI50", "setting": "[15]", "value": 3.22, "unit": "nM"},
      {"measurement": "TGI", "setting": "[15]", "value": "9.82 nM and 19.8 nM"},
      {"measurement": "GI50", "setting": "[16]", "value": 0.952, "unit": "nM"},
      {"measurement": "TGI", "setting": "[16]", "value": 13.7, "unit": "nM"},
      {"measurement": "GI50", "setting": "[17]", "value": 0.0418, "unit": "nM"},
      {"measurement": "TGI", "setting": "[17]", "value": 0.47, "unit": "nM"},
      {"measurement": "GI50", "setting": "[18]", "value": 0.464, "unit": "nM"},
      {"measurement": "TGI", "setting": "[18]", "value": "5.23 nM and 1.92 nM"},
      {"measurement": "GI50", "setting": "[19]", "value": 0.484, "unit": "nM"},
      {"measurement": "TGI", "setting": "[19]", "value": 2.93, "unit": "nM"},
      {"measurement": "GI50", "setting": "[20]", "value": 0.25, "unit": "nM"},
      {"measurement": "TGI", "setting": "[20]", "value": "3.77 nM and 10.7 nM"},
      {"measurement": "TGI", "setting": "[21]", "value": 5.01, "unit": "nM"},
      {"measurement": "GI50", "setting": "[22]", "value": 0.0272, "unit": "nM"},
      {"measurement": "TGI", "setting": "[23]", "value": "> 100", "unit": "nM"},
      {"measurement": "TGI", "setting": "[24]", "value": "50.4 nM and 12 nM"},
      {"measurement": "GI50", "setting": "[25]", "value": 0.14, "unit": "nM"},
      {"measurement": "TGI", "setting": "[25]", "value": "3.95 nM and 0.815 nM"},
      {"measurement": "GI50", "setting": "[26]", "value": 0.647, "unit": "nM"},
      {"measurement": "TGI", "setting": "[26]", "value": 2.14, "unit": "nM"},
      {"measurement": "GI50", "setting": "[27]", "value": 0.0482, "unit": "nM"},
      {"measurement": "TGI", "setting": "[27]", "value": 1.95, "unit": "nM"},
      {"measurement": "GI50", "setting": "[28]", "value": 1.82, "unit": "nM"},
      {"measurement": "TGI", "setting": "[28]", "value": "6.86 nM and 3.46 nM"},
      {"measurement": "GI50", "setting": "[29]", "value": 4.69, "unit": "nM"},
      {"measurement": "GI50", "setting": "[30]", "value": 0.0593, "unit": "nM"},
      {"measurement": "TGI", "setting": "[30]", "value": 1.4, "unit": "nM"},
      {"measurement": "GI50", "setting": "[31]", "value": 1.34, "unit": "nM"},
      {"measurement": "TGI", "setting": "[31]", "value": "> 100", "unit": "nM"},
      {"measurement": "GI50", "setting": "[32]", "value": 3.79, "unit": "nM"}
    ]}
  ]
}
